Data on 27 molecules can be found in ChEMBL document CHEMBL1148718, “Structure-activity relationship study on N-(1,2,3,4-tetrahydronaphthalen-1-yl)-4-aryl-1-piperazinehexanamides, a class of 5-HT7 receptor agents. 2” (J Med Chem, 2007).

As a reminder, the Ki is a measure of affinity in units of concentration, obtained from inhibition or displacement. In general, EC50 refers to the midpoint of the concentration-response curve. A word on the inhibition: it is the percentage by which the read-out fell short of the control.

Assay [1] deals with T1, 5-hydroxytryptamine receptor 1A (Homo sapiens, UniProt P08908).
T1 sequence (P08908 whole entry): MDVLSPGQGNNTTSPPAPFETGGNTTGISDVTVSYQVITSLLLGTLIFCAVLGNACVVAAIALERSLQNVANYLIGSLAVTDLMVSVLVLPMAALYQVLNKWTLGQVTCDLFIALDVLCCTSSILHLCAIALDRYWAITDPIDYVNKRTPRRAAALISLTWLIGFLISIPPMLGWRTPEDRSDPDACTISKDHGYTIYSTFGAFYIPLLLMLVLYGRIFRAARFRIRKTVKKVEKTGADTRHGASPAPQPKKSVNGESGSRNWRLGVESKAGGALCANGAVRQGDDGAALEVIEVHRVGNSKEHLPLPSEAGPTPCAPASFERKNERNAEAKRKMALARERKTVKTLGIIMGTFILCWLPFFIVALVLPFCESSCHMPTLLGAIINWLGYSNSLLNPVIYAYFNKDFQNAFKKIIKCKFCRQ
Nature of the assay: Displacement of [3H]8-OH-DPAT from human recombinant 5HT1A receptor expressed in HEK293 cells. Type of assay: cell-based. Background: In a radioligand displacement assay an active substance lowers the binding of a labelled ligand.

In assay [2] the target is 5-hydroxytryptamine receptor 7 (Rattus norvegicus, UniProt P32305). Briefly: Displacement of [3H]LSD from rat recombinant 5HT7 receptor expressed in HEK293 cells. Type of assay: cell-based.
For assay [3], the target named is 5-hydroxytryptamine receptor 7 (Cavia porcellus) (UniProt P50407). Briefly: (§1) Agonist activity at 5HT7 receptor in guinea pig ileum assessed as relaxation of substance P-induced contraction. Type of assay: functional, tissue-based.
Assay [4] deals with T2, 5-hydroxytryptamine receptor 7 (Cavia porcellus, UniProt P50407). Described as §1. Type of assay: functional, tissue-based.
In assay [5] the target is T3, D(2) dopamine receptor (Homo sapiens, UniProt P14416). Nature of the assay: Displacement of [3H]spiroperidol from human recombinant Dopamine D2 long receptor.
In assay [6] the target is 5-hydroxytryptamine receptor 2A (Rattus norvegicus, UniProt P14842). Nature of the assay: Displacement of [3H]ketanserin from 5HT2A receptor in Sprague-Dawley cortex membrane. The class given is cell membranes.
Assay [7] concerns the target T2, 5-hydroxytryptamine receptor 7. Nature of the assay: Antagonist activity at 5HT7 receptor in guinea pig ileum assessed as effect on 4-(2-dimethylaminophenyl)-N-(1,2,3,4-tetrahydronaphthalen-1-yl)-1-piperazine hexanamide mediated relaxation of substance P-induced contraction. The class given is functional, tissue-based. As to conditions: read-out: pA2 (converted).

The target is the same in assay [8]. Nature of the assay: Antagonist activity at 5HT7 receptor in guinea pig ileum assessed as effect on 6-(4-phenylpiperazin-1-yl)-N-(1,2,3,4-tetrahydronaphthalen-1-yl)hexanamide mediated relaxation of substance P-induced contraction. Type of assay: functional, tissue-based. Conditions: read-out: pA2 (converted).
For assay [9] the target is unchanged. Nature of the assay: Antagonist activity at 5HT7 receptor in guinea pig ileum assessed as effect on 4-(2-diphenyl)-N-(1,2,3,4-tetrahydronaphthalen-1-yl)-1-piperazine hexanamide mediated relaxation of substance P-induced contraction. Type of assay: functional, tissue-based. Conditions: read-out: pA2 (converted).
For assay [10] the target is unchanged. Briefly: Antagonist activity at 5HT7 receptor in guinea pig ileum assessed as effect on 6-(4-(2-chlorophenyl)piperazine-1-yl)-N-(1,2,3,4-tetrahydronaphthalen-1-yl)hexanamide mediated relaxation of substance P-induced contraction. The class given is functional, tissue-based. As to conditions: read-out: pA2 (converted).
For assay [11] the target is unchanged. Briefly: Antagonist activity at 5HT7 receptor in guinea pig ileum assessed as effect on 3-(2-aminoethyl)-1H-indole-5-carboxamide mediated relaxation of substance P-induced contraction. As to conditions: read-out: pA2 (converted). Type of assay: functional, tissue-based.
Assay [12] shares this target. Nature of the assay: Antagonist activity at 5HT7 receptor in guinea pig ileum assessed as effect on 4-[2-(1-methylethyl)phenyl]-N-(1,2,3,4-tetrahydronaphthalen-1-yl)-1-piperazine hexanamide mediated relaxation of substance P-induced contraction. Type of assay: functional, tissue-based. Conditions: read-out: pA2 (converted).
The target is the same in assay [13]. Nature of the assay: Antagonist activity at 5HT7 receptor in guinea pig ileum assessed as effect on 6-(4-(2-nitrophenyl)piperazin-1-yl)-N-(1,2,3,4-tetrahydronaphthalen-1-yl)hexanamide mediated relaxation of substance P-induced contraction. The class given is functional, tissue-based. Conditions: read-out: pA2 (converted).
The nature of assay [14]: Selectivity for rat 5HT7 over human 5HT1A.
The target in assay [15] is T3, D(2) dopamine receptor. Nature of the assay: Displacement of [3H]spiroperidol from human recombinant Dopamine D2 long receptor […].
Assay [16] can be described thus: Ratio of Ki for human Dopamine D2L receptor to Ki for rat 5HT7 receptor.
The target in assay [17] is T2, 5-hydroxytryptamine receptor 7. Briefly: Antagonist activity at 5HT7 receptor in guinea pig ileum assessed as effect on substance P-induced contraction. The class given is functional, tissue-based. Conditions: read-out: pA2 (converted).
The target of assay [18] is 5-hydroxytryptamine receptor 2A (Rattus norvegicus) (UniProt P14842). Nature of the assay: Displacement of [3H]ketanserin from 5HT2A receptor in Sprague-Dawley cortex membrane at >4000 uM. The class given is cell membranes.

Molecules are shown by their SMILES. Some results are limits rather than exact numbers.

T2 sequence (P50407 whole entry): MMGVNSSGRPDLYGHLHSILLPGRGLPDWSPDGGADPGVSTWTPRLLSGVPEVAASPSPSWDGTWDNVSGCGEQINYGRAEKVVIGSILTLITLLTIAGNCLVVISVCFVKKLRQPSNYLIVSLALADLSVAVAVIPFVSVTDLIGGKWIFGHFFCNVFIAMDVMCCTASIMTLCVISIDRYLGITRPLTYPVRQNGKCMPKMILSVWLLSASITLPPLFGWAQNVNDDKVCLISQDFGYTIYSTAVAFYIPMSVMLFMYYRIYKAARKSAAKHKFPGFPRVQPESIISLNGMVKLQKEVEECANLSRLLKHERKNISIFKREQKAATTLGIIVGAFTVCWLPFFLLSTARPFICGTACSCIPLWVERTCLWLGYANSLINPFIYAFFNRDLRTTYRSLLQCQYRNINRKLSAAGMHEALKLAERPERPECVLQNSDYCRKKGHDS
Chain of 5-hydroxytryptamine receptor 7 (Cavia porcellus) (P50407 whole entry): as above
Chain of 5-hydroxytryptamine receptor 7 (Rattus norvegicus, UniProt P32305) (P32305 whole entry): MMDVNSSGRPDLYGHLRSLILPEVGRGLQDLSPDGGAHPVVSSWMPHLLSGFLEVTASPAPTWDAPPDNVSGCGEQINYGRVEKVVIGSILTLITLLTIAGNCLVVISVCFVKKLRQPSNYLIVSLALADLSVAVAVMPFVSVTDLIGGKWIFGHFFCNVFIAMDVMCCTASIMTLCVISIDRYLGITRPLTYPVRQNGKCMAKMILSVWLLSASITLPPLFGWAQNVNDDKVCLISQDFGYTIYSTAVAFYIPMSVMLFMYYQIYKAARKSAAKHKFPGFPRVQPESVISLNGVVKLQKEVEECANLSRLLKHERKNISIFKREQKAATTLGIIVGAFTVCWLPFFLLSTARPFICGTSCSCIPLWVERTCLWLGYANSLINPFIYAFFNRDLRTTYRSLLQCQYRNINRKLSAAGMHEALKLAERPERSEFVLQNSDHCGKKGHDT
Chain of 5-hydroxytryptamine receptor 2A (P14842 whole entry): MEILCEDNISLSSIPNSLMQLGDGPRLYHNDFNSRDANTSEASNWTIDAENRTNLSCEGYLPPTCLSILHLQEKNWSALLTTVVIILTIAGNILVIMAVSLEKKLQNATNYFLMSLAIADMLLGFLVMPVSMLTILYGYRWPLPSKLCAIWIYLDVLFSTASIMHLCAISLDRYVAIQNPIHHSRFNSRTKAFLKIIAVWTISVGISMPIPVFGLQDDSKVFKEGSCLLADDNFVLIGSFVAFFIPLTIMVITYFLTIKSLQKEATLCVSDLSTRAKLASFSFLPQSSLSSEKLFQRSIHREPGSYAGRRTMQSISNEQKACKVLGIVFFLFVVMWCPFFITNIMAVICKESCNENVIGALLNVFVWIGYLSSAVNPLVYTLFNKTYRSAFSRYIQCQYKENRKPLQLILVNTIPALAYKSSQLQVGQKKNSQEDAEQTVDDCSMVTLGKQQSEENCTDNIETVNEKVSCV
T3 sequence (P14416 whole entry): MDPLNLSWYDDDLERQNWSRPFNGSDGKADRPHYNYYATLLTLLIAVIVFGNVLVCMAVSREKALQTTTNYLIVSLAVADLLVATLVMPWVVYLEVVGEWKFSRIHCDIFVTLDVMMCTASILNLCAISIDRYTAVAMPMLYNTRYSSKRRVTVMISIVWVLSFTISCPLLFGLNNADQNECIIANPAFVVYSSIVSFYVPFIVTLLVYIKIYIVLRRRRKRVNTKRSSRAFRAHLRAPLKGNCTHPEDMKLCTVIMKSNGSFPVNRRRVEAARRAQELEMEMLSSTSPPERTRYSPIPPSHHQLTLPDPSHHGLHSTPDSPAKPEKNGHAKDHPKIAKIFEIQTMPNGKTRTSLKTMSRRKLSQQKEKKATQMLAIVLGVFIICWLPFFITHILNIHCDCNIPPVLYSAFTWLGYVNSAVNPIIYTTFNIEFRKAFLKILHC
Chain of 5-hydroxytryptamine receptor 2A (Rattus norvegicus) (P14842 whole entry): as the sequence (P14842 whole entry) above

Regarding `O=C(CCCCCN1CCN(c2cccc[n+]2[O-])CC1)NC1CCCc2ccccc21` (stereo not given), the Ki in assay [1] is 194 nM; in assay [2], 8030 nM.
For the molecule `Nc1ccccc1N1CCN(CCCCCC(=O)NC2CCCc3ccccc32)CC1` (stereo not given), the results for the Ki in assay [1] and in [2] were 415 nM and 8180 nM, respectively.
Consider `O=C(CCCCCN1CCN(c2ccccc2Cl)CC1)NC1CCCc2ccccc21` (stereo not given), for which, in assay [3], the %max turned out to be 13%. Also, the EC50 in [4] came out at 17000 nM. The Ki on D(2) dopamine receptor [5] is 51 nM.
In the case of `N#Cc1ccccc1N1CCN(CCCCCC(=O)NC2CCCc3ccccc32)CC1` (stereo not given), the Ki at D(2) dopamine receptor [5] worked out at 265 nM.
With `CCc1ccccc1N1CCN(CCCCCC(=O)NC2CCCc3ccccc32)CC1` (stereo not given), the Ki in assay [1] was 79.2 nM; in assay [2], 7.1 nM; in assay [6], 3370 nM; on D(2) dopamine receptor [5], 173 nM.
Turning to `CC1CCN(CC[C@H]2CCCN2S(=O)(=O)c2cccc(O)c2)CC1`, the Kb in [7] is 12.6 nM; in assay [8] it was 7.94 nM; in [9], 14.5 nM; in assay [10] it was 3.98 nM; in [11], 33.1 nM; in assay [12], 8.91 nM. Also, the Kb in [13] is 6.31 nM.
Regarding `CN(C)c1ccccc1N1CCN(CCCCCC(=O)NC2CCCc3ccccc32)CC1` (stereo not given), the Ki is 112 nM in assay [1], 0.9 nM in assay [2], 559 nM in assay [6] and 32 nM on D(2) dopamine receptor [5]. For the same molecule, the %max in assay [3] was found to be 100%. Further, the EC50 in assay [4] came out at 1170 nM. Further, the Selectivity ratio in assay [14] was greater than 100.
For the molecule `CS(=O)(=O)Nc1ccccc1N1CCN(CCCCCC(=O)NC2CCCc3ccccc32)CC1` (stereo not given), the values for the Ki (in assay [2]; at D(2) dopamine receptor [5]) were 4250 nM and greater than 1000 nM, respectively. The inhibition at D(2) dopamine receptor [15] worked out at 28%.
Consider `O=C(CCCCCN1CCN(c2ccccc2-c2ccccc2)CC1)NC1CCCc2ccccc21` (stereo not given), for which the Ki in assay [1] was found to be 60.9 nM; in [2], 0.13 nM; in assay [6], 1460 nM; on D(2) dopamine receptor [5], 224 nM. Further, in [3], the %max was 74%. Moreover, in assay [4], the EC50 turned out to be 1770 nM. Also, in [14], the Selectivity ratio was greater than 100. Further, the Ratio Ki in assay [16] turned out to be 1720.
On to `CC(C)(C)c1ccccc1N1CCN(CCCCCC(=O)NC2CCCc3ccccc32)CC1` (stereo not given), for which the Ki is 1200 nM in assay [1], 538 nM in assay [2] and greater than 1000 nM on D(2) dopamine receptor [5]. Moreover, the inhibition at D(2) dopamine receptor [15] was 38%.
As for `CCCCc1ccccc1N1CCN(CCCCCC(=O)NC2CCCc3ccccc32)CC1` (stereo not given), the Ki in assay [1] came to 60 nM; in assay [2], 2810 nM; on D(2) dopamine receptor [5] it was 60 nM.
Regarding `CC(C)c1ccccc1N1CCN(CCCCCC(=O)NC2CCCc3ccccc32)CC1` (stereo not given), the Ki was 167 nM in [1], 1.1 nM in assay [2], 4820 nM in [6] and 15 nM on D(2) dopamine receptor [5]. Further, the %max in [3] is 83%. In addition, the EC50 in [4] came out at 900 nM. In addition, the Selectivity ratio in [14] was greater than 100.
`CCCc1ccccc1N1CCN(CCCCCC(=O)NC2CCCc3ccccc32)CC1` (stereo not given): the Ki in [1] was 168 nM; in assay [2], 49.6 nM; in [6] it was 3190 nM; at D(2) dopamine receptor [5] it was 123 nM.
Consider `Cc1ccccc1N1CCN(CCCCCC(=O)NC2CCCc3ccccc32)CC1` (stereo not given), for which the Ki at D(2) dopamine receptor [5] came to 143 nM.
As to `O=C(CCCCCN1CCN(c2ccccc2)CC1)NC1CCCc2ccccc21` (stereo not given), the %max in assay [3] worked out at 40%. Moreover, the EC50 in [4] was 8000 nM. Also, the Ki at D(2) dopamine receptor [5] stood at 1000 nM.
Take `O=C(CCCCCN1CCN(c2ccccc2[N+](=O)[O-])CC1)NC1CCCc2ccccc21` (stereo not given): the %max in assay [3] was determined as 24%. The EC50 in [4] was 10000 nM. The Ki on D(2) dopamine receptor [5] was 681 nM.
In the case of `CNc1ccccc1N1CCN(CCCCCC(=O)NC2CCCc3ccccc32)CC1` (stereo not given), the Ki in [1] came out at 133 nM; in assay [2] it was 25.4 nM; in assay [6] it was 1590 nM; at D(2) dopamine receptor [5] it was 107 nM. In addition, the Kb in assay [17] was 20 nM. Further, in assay [3], the %max was found to be 0%.
As for `O=C(CCCCCN1CCN(c2ccccc2F)CC1)NC1CCCc2ccccc21` (stereo not given), the Ki in [1] is 29.2 nM; in assay [2] it was 131 nM; in assay [6] it was 194 nM; at D(2) dopamine receptor [5], 292 nM.
Take `O=C(CCCCCN1CCN(c2ccccc2O)CC1)NC1CCCc2ccccc21` (stereo not given): at D(2) dopamine receptor [5], the Ki was determined as 987 nM.
Still for that read-out and setting: with `CC(=O)c1ccccc1N1CCN(CCCCCC(=O)NC2CCCc3ccccc32)CC1` (stereo not given) the figure was 68 nM.
As to `CS(=O)(=O)c1ccccc1N1CCN(CCCCCC(=O)NC2CCCc3ccccc32)CC1` (stereo not given), the figures for the inhibition (in [18]; at D(2) dopamine receptor [15]) were 38% and 32%, respectively. Besides, on D(2) dopamine receptor [5], the Ki was greater than 1000 nM.
Consider `NCCc1c[nH]c2ccc(C(N)=O)cc12`, for which the %max in [3] was 100%. In addition, the EC50 in assay [4] came to 630 nM. For the same molecule, the Ki in [2] was found to be 0.5 nM.
`CSc1ccccc1N1CCN(CCCCCC(=O)NC2CCCc3ccccc32)CC1` (stereo not given): the Ki on D(2) dopamine receptor [5] was found to be 7.3 nM.
For `CC(=O)Nc1ccccc1N1CCN(CCCCCC(=O)NC2CCCc3ccccc32)CC1` (stereo not given), the Ki in assay [1] was 2500 nM; in assay [2], 338 nM; in assay [6], 3520 nM; on D(2) dopamine receptor [5] it was greater than 1000 nM. The inhibition on D(2) dopamine receptor [15] was found to be 35%.
Turning to `COc1ccccc1N1CCN(CCCCCC(=O)NC2CCCc3ccccc32)CC1` (stereo not given), the Ki on D(2) dopamine receptor [5] was found to be 26.4 nM.
`O=C(CCCCCN1CCN(c2ccccn2)CC1)NC1CCCc2ccccc21` (stereo not given): the Ki in assay [1] was 36.4 nM; in [2], 278 nM; in assay [6] it was 535 nM; on D(2) dopamine receptor [5] it was greater than 1000 nM. Further, the inhibition on D(2) dopamine receptor [15] was determined as 15%.
Regarding `NC(=O)c1ccccc1N1CCN(CCCCCC(=O)NC2CCCc3ccccc32)CC1` (stereo not given), the inhibition in [18] was 9%; on D(2) dopamine receptor [15], 32%. For the same molecule, the Ki on D(2) dopamine receptor [5] is greater than 1000 nM.
